Results taken from PMC12750381 (ACS Omega, 2025).
Where “and” joins values, the source holds several entries; their conditions need not be identical. Equal entries are not always repeated.

Molecular target: HIV-1 wild-type protease (Human immunodeficiency virus type 1 group M subtype B, UniProt P04585)
Assay: Fluorometric HIV-1 protease assay (SensoLyte 520 HIV Protease Assay Kit)
Format: biochemical
Conditions: for enzyme inhibition (relative activity): at 1 μM, 100 nM and 10 nM
Description: The inhibitory effects of the described compounds against HIV-1 wild-type protease were assessed utilizing the fluorometric HIV-1 protease assay kit (SensoLyte 520 HIV Protease Assay Kit AS-71147, AnaSpec Inc., USA), following the manufacturer’s recommended protocol. […] Additionally, 0.01% (v/v) DMSO was employed as the negative control. […] The tested compounds 9a–g were dissolved in 100% DMSO and further diluted with the assay buffer provided in the kit to varying concentrations. The fluorescence was measured in kinetic mode at 490 nm (excitation) and 520 nm (emission) for 90 min at 37 °C using the Varioskan LUX multimode microplate reader (Thermo Fisher Scientific Inc. USA). The raw data obtained were subsequently normalized relative to the controls, with 0.01% DMSO set as 0% inhibitory activity. The IC50 values were calculated by fitting the data to a four-parameter log(inhibitor) vs response equation using GraphPad Prism version 9.5.0 (GraphPad Software, San Diego, California, USA).

SMILES	enzyme inhibition (relative activity) (result in words)	IC50 (IC50, wild-type HIV-1 protease, four-parameter log(inhibitor) vs response fit)	inhibitory effect (at 1 μM and 100 nM, result in words)
NC(=O)CNC(=O)C(Cc1ccccc1)CP(=O)(O)CC(Cc1ccccc1)C(=O)NCC(N)=O (stereo not shown) [Compound 9a, Bis(3-((2-amino-2-oxoethyl)amino)-2-benzyl-3-oxopropyl)phosphinic Acid]	did not exhibit any significant inhibitory effect		
C[C@H](NC(=O)C(Cc1ccccc1)CP(=O)(O)CC(Cc1ccccc1)C(=O)N[C@@H](C)C(N)=O)C(N)=O (stereo partly drawn) [Compound 9b, Bis(3-(((S)-1-amino-1-oxopropan-2-yl)amino)-2-benzyl-3-oxopropyl)phosphinic Acid]	only weak inhibition		
CC(C)[C@H](NC(=O)C(Cc1ccccc1)CP(=O)(O)CC(Cc1ccccc1)C(=O)N[C@H](C(N)=O)C(C)C)C(N)=O (stereo partly drawn) [Compound 9c, Bis(3-(((S)-1-amino-3-methyl-1-oxobutan-2-yl)amino)-2-benzyl-3-oxopropyl)phosphinic Acid]		33 nM and 33.1 nM	pronounced inhibitory effect comparable to that of Darunavir
CC(C)C[C@H](NC(=O)C(Cc1ccccc1)CP(=O)(O)CC(Cc1ccccc1)C(=O)N[C@@H](CC(C)C)C(N)=O)C(N)=O (stereo partly drawn) [Compound 9d, Bis(3-(((S)-1-amino-4-methyl-1-oxopentan-2-yl)amino)-2-benzyl-3-oxopropyl)phosphinic Acid]	moderate level of enzyme inhibition		
NC(=O)[C@H](Cc1ccccc1)NC(=O)C(Cc1ccccc1)CP(=O)(O)CC(Cc1ccccc1)C(=O)N[C@@H](Cc1ccccc1)C(N)=O (stereo partly drawn) [Compound 9e, Bis(3-(((S)-1-amino-1-oxo-3-phenylpropan-2-yl)amino)-2-benzyl-3-oxopropyl)phosphinic Acid]	only weak inhibition		
NC(=O)[C@@H]1CCCN1C(=O)C(Cc1ccccc1)CP(=O)(O)CC(Cc1ccccc1)C(=O)N1CCC[C@H]1C(N)=O (stereo partly drawn) [Compound 9f, Bis(2-benzyl-3-((S)-2-carbamoylpyrrolidin-1-yl)-3-oxopropyl)phosphinic Acid]	did not exhibit any significant inhibitory effect		
